The target of one series is T1, purified human PRX3 (Homo sapiens, UniProt P30048).
T1 construct: made in house
T1 sequence (P30048 62-256): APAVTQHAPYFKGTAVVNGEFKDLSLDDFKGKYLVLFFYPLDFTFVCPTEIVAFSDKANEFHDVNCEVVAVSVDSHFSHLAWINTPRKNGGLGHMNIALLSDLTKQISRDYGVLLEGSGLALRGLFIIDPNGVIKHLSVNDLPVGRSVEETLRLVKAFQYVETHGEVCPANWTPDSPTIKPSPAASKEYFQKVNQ
As to the kind of experiment: Biochemical PRX3 Inhibition Assay (non-reducible crosslink by SDS PAGE + single adduct by MALDI-TOF MS). The conditions noted are these: 100 μM PRX3 with TRX2/thioredoxin reductase/NADPH system and hydrogen peroxide, 1-2 hr at 37° C. The text has this: The compounds described herein generally react with two essential cysteine residues in the mitochondrial peroxidase PRX3, leading to the formation of a non-reducible, covalent crosslink of two PRX3 monomers. This crosslink inactivates PRX3. Increased PRX3 crosslink is associated with mitochondrial stress, increased cell death in cell models of malignant mesothelioma and is associated with decreased tumor volume in a mouse model. Cunniff et al. (2015) PloS one 10, e0127310.
(§1) To test the activity of compounds, two complimentary assays were used as described below. The Biochemical PRX3 Inhibition Assay tests the ability of each compound to crosslink PRX3 in a simple, in vitro system. In the Cellular Activity Assay, we are testing the ability of compounds to kill SK—OV-3 ovarian cancer cells.
This assay tests the ability of each compound to form a covalent adduct with PRX3. The assay is performed as described in Nelson et al. (2021) Antioxidants (Basel) 10, 150; and Cunniff et al. (2015) PloS one 10, e0127310, and follows the appearance of non-reducible PRX3 crosslinks by SDS PAGE gel electrophoresis and follows the appearance of single PRX3 adducts by mass spectrometry. For this assay, purified human PRX3, hydrogen peroxide (the PRX3 substrate) and all the components required to enable PRX3 to catalytically cycle (thioredoxin-thioredoxin reductase-NAPDH system) are included (details below).
The biochemical PRX3 Inhibition assay contains 100 μM PRX3, 50 μM human TRX2, 0.5 μM mouse thioredoxin reductase, and a NADPH regenerating system composed of 3.2 mM glucose 6-phosphate, 3.2 U/ml glucose 6-phosphate dehydrogenase and 0.4 mM NADPH. Samples are incubated for 1-2 hr at 37° C. with either 0.2 mM TS (positive control), compounds or an equivalent volume of DMSO (negative control). During this incubation, hydrogen peroxide is added to induce turnover of PRX3. Reactions are stopped by the addition of a buffer containing 100 mM dithiothreitol (to break disulfide bonds) and SDS (detergent to denature proteins). NADPH, Glucose 6-Phosphate, and glucose 6-phosphate dehydrogenase were purchased from Sigma Aldrich. PRX3, thioredoxin, and thioredoxin reductase were all purified to >98% purity in the Lowther laboratory according to protocols referenced in Nelson et al. (2021) Antioxidants (Basel) 10, 150; and Cunniff et al. (2015) PloS one 10, e0127310.
To measure the amount of PRX3 crosslink, proteins in the reaction were separated by SDS-polyacrylamide gel electrophoresis and stained for total protein using GelCode Blue (Life Technologies). The amount of unmodified PRX3 and TS-PRX3 crosslink was measured by densiometric analysis of the signal for the PRX3 band running at the MW of a PRX3 crosslink (˜46 kDa) compared to the PRX3 signal at the MW of the un-modified PRX3 (−23 kD).
To measure covalent adduct formation on a single PRX3 monomer, each reaction was exchanged into a mass spectrometry compatible buffer containing 40 mM ammonium citrate, pH 8.3 made in HPLC water. Sample was mixed 1:1 with a matrix solution containing 30 mg/mL sinapinic acid in 70% (vol/vol) acetonitrile, 0.2% formic acid and spotted to onto the sample plate. PRX3 mass was measured by MALDI-TOF MS analysis on a Bruker Daltonics MALDI-TOF MS spectrometer. Spectra were analyzed in FLEXAnalysis Software. The intensity of the reduced PRX3 peak (SH) and intensity of the analog adduct peak was determined and corrected for background signal at the adduct peak in the DMSO control. The fraction of single analog adduct in the monomer peak was determined by dividing the intensity of the adduct peak by the summed intensity of the SH and adduct peaks.

The next series is described as follows: Solubility Assay (HPLC). In kind it is physicochemical. As to conditions: 20 mM HEPES, 100 mM NaCl, pH 7.5, 18-24 hours at ambient temperature. The procedure:
A 20 mM stock solution was made for each compound in DMSO. To measure solubility, 0.03-0.05 mL of the stock was added to 0.27 mL 20 mM HEPES, 100 mM NaCl, pH 7.5. The solution was mixed and rotated 18-24 hours at ambient temperature. The next day, solutions were centrifuged for 10 min at 20,000×g at […] to remove insoluble, solid material. Next, 100 μL of the supernatant containing the soluble compound was added to 900 μL DMSO and High Performance Liquid Chromatography was performed as described in Table 1 and either HIPLC gradient 1 (Table 2) or HIPLC gradient 2 (Table 3). For each analog, a 200 μM standard and a 20 μM standard were prepared and run in parallel (standards were dissolved completely in […]). The amount ofLcompound in the experimental sample was calculated by comparing the area under the curve for compound peak to the area for the closest standard and correcting for dilution.

Series [1] concerns human SK—OV-3 ovarian cancer cells. As to the kind of experiment: Cellular Activity Assay (cytotoxicity, crystal violet). In kind it is cell-based. As to conditions: SK—OV-3 cells, treated for 48 hr, 0.1-100 μM, crystal violet absorbance at 540 nm.
Description: as §1
The Cellular Activity Assay measures the EC50 of each compound in human SK—OV-3 ovarian cancer cells TS to be taken into the cell, transported to the mitochondria, and crosslink PRX3.
The cytotoxicity of compounds was measured as described in Nelson et al. (2021) Antioxidants (Basel) 10, 150; Cunniff et al. (2015) PloS one 10, e0127310; and Newick et al. (2012) PloS one 7, e39404. SK—OV-3 is an adherent, epithelial, adenocarcinoma cell line obtained from ATCC (ref #: HTB-77). SK—OV-3 cells are resistant to the commonly used chemotherapeutics, cis-platinum and doxorubicin. For this […], SK—OV-3 cells were plated in a 96-well plate. After 24 h recovery, the cells were treated for 48 hr with multiple concentrations of each compound ranging from 0.1-100 μM.
Cells were washed with PBS to remove dead cells and the remaining live cells were fixed with 3.0% formaldehyde and stained with 0.1% crystal violet. The amount of crystal violet was determined by reading the absorbance at 540 nm (crystal violet dye dissolved in 100% methanol) using a plate reader. The signal for crystal violet dye is proportional to the biomass of remaining live cells. GraphPad Prism9 software was used to calculate the effective inhibitory concentration (EC50) of test compounds. Results for each compound, are normalized to the amount of cells in control wells treated with the equivalent concentration of DMSO (negative control). TS or Compound 4 were included in each set of assays as a positive control.

Setting [2] is: HEPES/NaCl buffer, aqueous with cosolvent or surfactant or cyclodextrin, kinetic from dmso stock, read-out: Solubility.

In brackets after ≈: the same amount, converted by molar mass. Like-named read-outs stand apart in the source and are kept apart here. A value given as a limit tells only on which side of the number the result lay.

The values that follow come from patent US20250011316A1, “PEROXIREDOXIN 3 INHIBITORS AND METHODS OF USE FOR TREATING CANCER” (Wake Forest University Health Sciences, priority 2022, published 2025).

Turning to `C=C(NC(=O)c1csc(N2CCN(C(=O)OC(C)(C)C)[C@@H](C)C2)n1)C(=O)NC(=C)C(=O)OC` [Compound 57, Tert-butyl (S)-4-(4-((3-((3-methoxy-3-oxoprop-1-en-2-yl)amino)-3-oxoprop-1-en-2-yl)carbamoyl)thiazol-2-yl)-2-methylpiperazine-1-carboxylate], the “PRX3 Inhibition (Crosslink + Mono-adduct)” value (“PRX3 Inhibition” for short) at purified human PRX3 is on record as “+++ (>90%)”. Also, the solubility in “Solubility Assay (HPLC)” (setting [2]) is less than 100 µM. In series [1] (Homo sapiens), this compound returned a 50% effective concentration (EC50) of 1 to 10 µM.

Regarding `C=C(NC(=O)c1csc(N2CCC[C@H](NC(=O)C3CCOCC3)C2)n1)C(=O)NC(=C)C(=O)OC` [Compound 54, methyl (S)-2-(2-(2-(3-(tetrahydro-2H-pyran-4-carboxamido)piperidin-1-yl)thiazole-4-carboxamido)acrylamido)acrylate], the “PRX3 Inhibition” value on purified human PRX3 was “++ (50-90%)”. For the same compound, in “Solubility Assay (HPLC)” (setting [2]), the solubility was less than 100 µM. Also, the EC50 in series [1] (Homo sapiens) was in the range of 25 to 100 µM.

With `C=C(NC(=O)c1csc(-c2ccc(CNC(=O)OCCOCCNC(=O)OC(C)(C)C)cc2)n1)C(=O)NC(=C)C(=O)OC` [Compound 49, Methyl 2-(2-(2-(4-(13,13-dimethyl-3,11-dioxo-4,7,12-trioxa-2,10-diazatetradecyl)phenyl)thiazole-4-carboxamido)acrylamido)acrylate], the “PRX3 Inhibition” value on purified human PRX3 is “+++ (>90%)”. For the same compound, the solubility in “Solubility Assay (HPLC)” (setting [2]) was less than 100 µM. The compound further displayed an EC50 in series [1] (Homo sapiens, SK-OV-3, 48 h) of 1 to 10 µM.

In the case of `C=C(NC(=O)c1csc(N2CCN(C(=O)OC(C)(C)C)[C@H](C)C2)n1)C(=O)NC(=C)C(=O)OC` [Compound 60, Tert-butyl (R)-4-(4-((3-((3-methoxy-3-oxoprop-1-en-2-yl)amino)-3-oxoprop-1-en-2-yl)carbamoyl)thiazol-2-yl)-2-methylpiperazine-1-carboxylate], the “PRX3 Inhibition” value at purified human PRX3 is listed as “+++ (>90%)”. The solubility in the series “Solubility Assay (HPLC)” (setting [2]) was less than 100 µM.

`C=C(NC(=O)c1csc(-c2ccc(COC(=O)NCCCOC)cc2)n1)C(=O)NC(=C)C(=O)OC` [Compound 42, Methyl 2-(2-(2-(4-((((3-methoxypropyl)carbamoyl)oxy)methyl)phenyl)thiazole-4-carboxamido)acrylamido)acrylate]: the “PRX3 Inhibition” value at purified human PRX3 is reported as “+++ (>90%)”. Also, the solubility in “Solubility Assay (HPLC)” (setting [2]) is less than 100 µM. The half-maximal effective concentration (EC50) in series [1] (Homo sapiens) lay within 1 to 10 µM.

In the case of `C=C(NC(=O)c1csc(-c2ccc(CNC(=O)CCCCCNC(=O)OC(C)(C)C)cc2)n1)C(=O)NC(=C)C(=O)OC` [Compound 44, Methyl 2-(2-(2-(4-((6-((tert-butoxycarbonyl)amino)hexanamido)methyl)phenyl)thiazole-4-carboxamido)acrylamido)acrylate], the “PRX3 Inhibition” value at purified human PRX3 is “+++ (>90%)”. Also, in the series “Solubility Assay (HPLC)”, the solubility result is reported as “+ (<0.1 mM)”. In series [1], the EC50 was 1 to 10 µM.

Consider `C=C(NC(=O)c1csc(-c2ccc(NC(=O)CCCCCCl)cc2)n1)C(=O)NC(=C)C(=O)OC` [Compound 48, Methyl 2-(2-(2-(4-(6-chlorohexanamido)phenyl)thiazole-4-carboxamido)acrylamido)acrylate], for which the “PRX3 Inhibition” value at purified human PRX3 was “++ (50-90%)”. Also, the solubility in the series “Solubility Assay (HPLC)” (setting [2]) is less than 100 µM. The compound also had a 50% effective concentration (EC50) in series [1] (Homo sapiens) of 1 to 10 µM.

Consider `C=C(NC(=O)c1csc(N2CCC(NC(=O)COC)CC2)n1)C(=O)NC(=C)C(=O)OC` [Compound 55, Methyl 2-(2-(2-(4-(2-methoxyacetamido)piperidin-1-yl)thiazole-4-carboxamido)acrylamido)acrylate], for which the “PRX3 Inhibition” value at purified human PRX3 is on record as “++ (50-90%)”. In addition, the solubility in the series “Solubility Assay (HPLC)” (setting [2]) was less than 100 µM. This compound also gave an EC50 in series [1] (Homo sapiens, SK-OV-3, 48 h) of 10 to 25 µM.

On to `C=C(NC(=O)c1csc(N2CCC(C(=O)NC3CCOCC3)CC2)n1)C(=O)NC(=C)C(=O)OC` [Compound 53, Methyl 2-(2-(2-(4-((tetrahydro-2H-pyran-4-yl)carbamoyl)piperidin-1-yl)thiazole-4-carboxamido)acrylamido)acrylate], for which the “PRX3 Inhibition” value on purified human PRX3 is “+++ (>90%)”. Besides, the solubility in “Solubility Assay (HPLC)” (setting [2]) is less than 100 µM. The compound also had an EC50 in series [1] (Homo sapiens) of 10 to 25 µM.

For `C=C(NC(=O)c1csc(N2CCN(C(=O)C3CCOCC3)CC2)n1)C(=O)NC(=C)C(=O)OC` [Compound 59, Methyl 2-(2-(2-(4-(tetrahydro-2H-pyran-4-carbonyl)piperazin-1-yl)thiazole-4-carboxamido)acrylamido)acrylate], the “PRX3 Inhibition” value on purified human PRX3 is on record as “+++ (>90%)”. In the series “Solubility Assay (HPLC)” (setting [2]), the solubility was 100 to 1000 µM (≈ 47.8 to 478 µg/mL).

With `C=C(NC(=O)c1csc(N2CCC(NC(=O)CC3CCOCC3)CC2)n1)C(=O)NC(=C)C(=O)OC` [Compound 51, Methyl 2-(2-(2-(4-(2-(tetrahydro-2H-pyran-4-yl)acetamido)piperidin-1-yl)thiazole-4-carboxamido)acrylamido)acrylate], the “PRX3 Inhibition” value at purified human PRX3 was “+++ (>90%)”. Moreover, the solubility in the series “Solubility Assay (HPLC)” (setting [2]) is less than 100 µM.

Turning to `C=C(NC(=O)c1csc(N2CCC(NC(=O)C3COCCO3)CC2)n1)C(=O)NC(=C)C(=O)OC` (centres unmarked) [Compound 58, Methyl 2-(2-(2-(4-(1,4-dioxane-2-carboxamido)piperidin-1-yl)thiazole-4-carboxamido)acrylamido)acrylate], the “PRX3 Inhibition” value on purified human PRX3 is listed as “+++ (>90%)”. Moreover, the solubility in “Solubility Assay (HPLC)” (setting [2]) lay within 100 to 1000 µM (≈ 49.4 to 494 µg/mL).

Usually solubility stands for the concentration that dissolves in the medium under given conditions. The EC50 is the concentration giving half of the maximal effect.
